Assay [1] has as its system mice. Put plainly: Sublethal irradiation anemia model. It counts as in vivo, mouse. How it is done:
Mice were irradiated with 4.5 Grays, and 24 hours later mice were implanted with ALZET micro-osmotic pumps as described above to deliver AVP or vehicle. Mice were treated with Trimethoprim and Sulfamethoxazole (Bactrim, Septra) for 7 days before irradiation and continued the treatment for 4 weeks after irradiation. Using a pediatric formulation, the stock concentration contains 40 mg/5 ml Trimethoprim and 200 mg/5 ml Sulfa, so that the treated drinking water will deliver 0.13 mg/ml trimethoprim and 0.67 mg/ml sulfa to the mice.

Another assay deals with Human BMSCs. The assay can be described thus: BMSC signalling (ERK phosphorylation, cAMP, intracellular Ca2+). It counts as cell-based. To be noted: BMSC cultures.
Another assay deals with human CD34^+ cells. Put plainly: Brattleboro/LE rat BMSC and human CD34+ progenitor co-culture, BrdU. Format: cell-based. To be noted: AVP 10^−13 M. How it is done: Rat BMSCs were isolated and cultured from the bone marrow of 5-6 weeks old male Brattleboro (animals that lack the ability to produce vasopressin) and Long-Evans rats (control strain for the Brattleboro rats) as described before. For flow cytometry studies, 100000 rat BMSCs per well were plated in αMEM medium (20% FBS) in 12 well plates in quadruplicates and incubated overnight. Next day, medium was removed and 200000 human CD34 cells per well were added in Stemspan medium with factors (human SCF, TPO, FLT3L and G-CSF 100 ng/ml). Co-culture was stimulated with AVP or left unstimulated (PBS) and next day BrdU was added. After 24 hours the cells were trypsinized, brought up in αMEM (20% FBS), resuspended and strained through 70 μm cell strainer. For normalization, Sigma beads were added to each sample tube. Cells were washed with FACS buffer and stained for human CD34 and CD38. The subsequent steps were done according to the BD BrdU Flow kit protocol. At flow cytometry measurements, cell numbers were normalized to Sigma bead numbers.

The next assay has as its system β-catenin. Put plainly: β-catenin immunostaining of AVP-stimulated human CD34+ cells. Format: cell-based. The settings on record: 10^−10 M, 24 hours. The text has this: FIGS. 3A-3D show studies of signaling pathways. FIG. 3A provides results from CFU assays showing E-CFU and GM-CFU numbers/1000 plated cells. […] Error bars represent means±SD * p<0.05, ** p<0.01, unpaired t-test. […] The cells were then fixed with 4% paraformaldehyde and washed before immunostaining. Following permeabilization with Triton-X 100 a primary antibody to β-catenin was applied followed by a fluorescent secondary antibody. The β-catenin translocated to the nucleus at the 10^−10 AVP concentration confirming the activation of the Wnt pathway. Scale: 10 μm. […] Using Q-PCR to detect changes in genes that reflect Wnt pathway activation, increases in CCND1, MYC and LEF1 in response to AVP stimulation were observed.
FIGS. 8A-8C show AVP stimulation results in the nuclear translocation of β-catenin affecting the Wnt pathway. […] The cells were then fixed with 4% paraformaldehyde and washed before immunostaining. Following permeabilization with Triton-X 100, a primary antibody to β-catenin was applied followed by a fluorescent secondary antibody. The β-catenin translocated to the nucleus at the 10^−10 M AVP concentration confirming the activation of the Wnt pathway. Scale: 10 μm. FIG. 8B CFU assays showing E-CFU and GM-CFU numbers/1000 plated cells. […] Error bars represent means±SD * p<0.05, ** p<0.01, unpaired t-test.

The subject of assay [2] is mice. Put plainly: Single intraperitoneal AVP injection, bone marrow populations 16 hours later. It counts as in vivo, mouse. The settings on record: i.p. 100 μg/kg, bone marrow 16 hours later. How it is done:
Short-term effect of a single intraperitoneal AVP injection: [Arg8]-Vasopressin (Ana-spec) (100 μg/kg body weight) together with 20 mg/kg body weight o-phenantroline (Sigma-Aldrich) or vehicle PBS with 20 mg/kg body weight o-phenantroline. 16 hours later bone marrow (two hind limbs) and spleen cells were obtained to study the distribu-tion of HSCs and multipotent progenitors (MPP) as well as intermediate lineage-com-mitted progenitors and the erythroid populations as described before (n=5/group) (Wilson et al. Cell 135, 1118-1129, doi:10.1016/j.cell.2008.10.048 (2008); Pronk, C. J. et al. Cell Stem Cell 1, 428-442, doi:10.1016/j.stem.2007.07.005 (2007); Weissman, I. L. Cell 100, 157-168 (2000). Serial AVP injections: Mice (n=8-9) were injected ip. 2 times/day with AVP 100 μg/kg body weight or PBS for 6.5 days. After day 6.5, mice were euthanized and the erythroid populations (CD71^+, Ter119^+) in spleen and bone marrow were analyzed (Cheshier, S. H. et al., Stem Cells Dev 16, 707-717, doi:10.1089/scd.2007.0017 (2007).

The subject of a further assay is WT mice. Put plainly: AVP infusion in unmanipulated WT mice. Format: in vivo, mouse. The settings on record: infused over a 3 week period.

The values below come from patent publication US10172911B2, “Methods of modulating erythropoiesis with arginine vasopressin receptor 1B molecules” (The United States of America, as represented by the …, priority 2013, dated 2019).

“Also recorded” adds a separate entry of the source.

Protocol for Human BMSCs: Human BMSCs were loaded with Fura-2 and the cells were stimulated with AVP, or OXT.
For cAMP quantitation, 8×10^5 per well human BMSCs were plated in 6 well plates and left to attach overnight. Next day, the medium was changed and the cells were stimulated with AVP or deamino-Cys^1, D-Arg^8 AVP (DDAVP, a V2 receptor agonist) at 10^−6 M for 4 minutes. Cells were washed with PBS and lysed with R&D cell lysis buffer. Cyclic AMP was measured with the R&D cAMP Parameter assay kit (R&D Systems, Minneapolis, Minn.) according to manufacturer's instructions. Total protein concentrations of the cell lysates were measured using the Micro BCA Protein Assay kit (Pierce, Rockford, Ill.) and cAMP amount was normalized to 100 μg of total protein.

Turning to `NC(=O)CC[C@@H]1NC(=O)[C@H](Cc2ccccc2)NC(=O)[C@H](Cc2ccc(O)cc2)NC(=O)[C@@H](N)CSSC[C@@H](C(=O)N2CCC[C@H]2C(=O)N[C@@H](CCCN=C(N)N)C(=O)NCC(N)=O)NC(=O)[C@H](CC(N)=O)NC1=O` [AVP, [Arg8]-Vasopressin], in the assay on mice [1] (sublethal irradiation, day 2 and day 4), the “outcome measures (hematocrit, corrected reticulocytes)” value was “significantly improved outcome measures on day 2 and to some extent on day 4”. The “hematocrit and reticulocyte numbers” value with mice [1] (sublethally irradiated mice) is “rapid elevations in hematocrit and reticulocyte numbers”. The ERK phosphorylation result with Human BMSCs was “induced ERK phosphorylation”. The “cyclic AMP” value in the assay on Human BMSCs (10^−6 M for 4 minutes) is recorded as “increase in cyclic AMP”. Further, the “proliferation of CD34+ cells” value in the assay with human CD34^+ cells (Brattleboro-derived BMSCs) is “failed to induce proliferation”. Further, in the assay with human CD34^+ cells (LE BMSCs), the “proliferation of CD34+ cells” value is given as “did cause CD34^+ cells to proliferate”. Besides, the “nuclear translocation of β-catenin” value in the assay with β-catenin is “drives nuclear translocation of β-catenin; also recorded: had this effect”. In the assay on mice [2], the “number of HSCs and early multipotent progenitors (MPPs)” value is reported as “No difference was detected”; the “number of red blood cell producing progenitors and blast cells (CMP, MEP, proerythroblast, erythroblasts)” value is recorded as “statistically significant increase”. The RBC numbers entry in the assay with WT mice is recorded as “gradually increased RBC numbers”.
